Patent US20210330736A1 (UNIVERSITEIT VAN AMSTERDAM, priority 2018, published 2021)
Bridges are numbered along the chain shown (N, C = ends). [ ]: non-standard residue; d: D form. Abu = CC[C@H](N)C(=O)O

How the values were obtained:
Type in all cases: cell-based
[1] = test system: Th Ser40 phosphorylation in mouse striatum slices; assay: Th Ser40 phosphorylation in mouse striatal slices ex vivo (WES automated western); settings: for Fold change (average), P-S40 TH/TTH / effects in striatal slices (significance, in words): 1 h; for Fold change (average), P-S40 TH/TTH: WES; for effects in striatal slices (significance, in words): peptides 10 μM, mouse striatal slices
Description: FIG. 13. Bay 60-7550 and Guanylin synergize to induce Ser40 phosphorylation Analysis of striatal slices treated with indicated compounds. WES data showing the phosphorylation of Th on Serine 40 is shown as well as total Th levels (a). From left to right are sequential striatal slices from rostral to caudal. Every slice is split into left and right hemisphere and either treated with compounds or vehicle. Left a positive and negative control is shown (Neuro2a cells transfected with Th or empty vector). The amount of Th Ser40 is corrected for the amount of total Th and shown in the bar graph (b). Each individual slice is indicated by a different symbol. Signficance is determined using a 2-tailed paired t-test. 2-tailed paired t-test: p=0.006.
Adult mice with an average of 5 weeks were sacrificed and the brain was quickly removed and sliced into coronal sections of 250 μm using a vibratome. Sections containing striatum were micro-dissected to remove non-striatal structures. Hemispheres were separated and one hemisphere was treated with compounds whereas the counter-hemisphere was treated with vehicle. Treatment of slices occurred in carbonized artificial cerebrospinal fluid (aCSF). After treatments, slices were lyzed in SDS containing sample buffer, sonicated, and heated at 95° C. Samples were analyzed on a WES automated western system (Protein Simple) according to manufacturer's instructions.
To investigate the effect of PDE2 inhibition in the mouse brain, an ex-vivo approach using brain slices was utilized. Coronal slices of mouse striatum were prepared and treated with BAY-60 7550 diluted in aCSF and subsequently analyzed by a WES automated western system. […] PDE2 is thus expressed in dopaminergic neurons and PDE2 protein and Th protein are present in the synaptic terminals of the neurons which project from the midbrain dopamine system to the striatum. To investigate the effects of GUCY2C ligands on Th activation, coronal slices of the mouse striatum were prepared, treated with guanylin and analyzed for Th Ser40 phosphorylation as was done for BAY-60-7550. […] The machinery for producing dopamine is thus present in the synaptic terminals where dopamine is released. […] Since both BAY 60-7550 and guanylin increased Th phosphorylation at 10μM, but not at 1 μM, we examined the effect of combining BAY 60-7750 and guanylin at 1μM.

GUCY2C = GUCY2C (Homo sapiens, UniProt P25092); assay: GUCY2C ligand analysis in HEK-293 cells transfected with GUCY2C and Th (WES); design: expressed in transfected cells; host or cells: HEK-293 cells transfected with GUCY2C and Th; settings: 10 μM, Th Ser40 corrected for total Th, n=3
Procedure: Potential GUCY2C ligands were tested in HEK-293 cells transfected with GUCY2C and Th and subsequently treated and analyzed by automated western (WES). Th Ser40 was corrected for total Th. Controls were set to 1. Significance is determined by two-tailed t-test on n=3. * p<0.05, **p<0.01, ***p<0.005, “”p<0.001. A) Guanylin control 10 μM. B) Peptides 1 to 5 in an amount of 10 μM. C) Peptides 6 to 11 in an amount of 10 μM.
We designed novel peptides with different activities with respect to endogenous GUCY2C ligands (Table 3). The peptides were analyzed in Th and GUCY2C transfected HEK-293 cells and subsequently tested ex-vivo in mice striatal slices. […] We synthezised uroguanylin and heat stable toxin as controls for the synthezised peptides and they thus are from a different source than the commercially available uroguanylin and heat stable toxin. […] Possibly the effects of the peptides can differ depending on the area in the striatum which is stimulated.

[2] = test system: Ser40 phosphorylation of Th in HEK cells transfected with Th; assay: Th Ser40 phosphorylation in HEK cells transfected with Th (western blot); settings: HEK transfected with Th, 500 μM, 48 hours post-plating
Procedure: FIG. 3. HEK cells are a suitable model to study GUCY2C-induced Ser40 phosphorylation. (A) RT-qPCR data from intact HEK extracts. Input material was 10 ng of total RNA. Cp corresponds to the cycle number in which the expression starts to be considered positive. (−) represents the water control, which is negative in every case. (B) HEK cultures were transfected with Th and treated with a cGMP analogue 48 hours post-plating. Changes in Ser40 phosphorylation were studied. The graph represents the statistical analysis (n=6; Mean±SEM). Unpaired Student's t-test (p-value: ****<0.0001). Hereon, ‘Fold Change’ corresponds to the ratio P-Ser40/Total Th.
(§1) FIG. 7. PDE2a is an important effector regulating Ser40 phosphorylation in MN9D cells. BAY-60-7550 dose-curve and representative examples in MN9D (n=9, red) and HEK cells (n=4, blue) (Mean±SEM). Cells were treated with various concentrations of BAY 60-7750 and analyzed for Th phosphorylation on Ser40 , total Th and actin.
HEK cells were maintained in 100-mm Petri dishes and grown in DMEM medium supplemented with L-glutamine, penicillin-streptomycin (Pen&Strep) and 10% heat-inactivated fetal bovine serum (HIFBS). Growing conditions were 37° C. and 5% CO2. For every-other-day passages, HEK cultures were split at a 1:3 dilution. From Friday to Monday, the split proportion was doubled for all cell lines. For passaging, cultures were rinsed with PBS and incubated with 1 mL of trypsin during 5 minutes. Cells were resuspended in growth medium and finally split to the proper dilution. The experiments were performed in 12-well plates. For immunocytochemistry analysis, sterile 18-mm coverslips were added prior to the plating. 500 !μL of cell resuspension was seeded in each well. If experiments were to be performed 48 hours after the plate preparation, 1:5 was the seeding ratio for HEK cells. When the experiments took place 96 hours post-plating, 1:7 was the working dilution for HEK cells. Unless otherwise stated, HEK cultures were processed 96 hours post-plating.
HEK cells were transfected using the calcium-phosphate method. […]

[3] = test system: Ser40 phosphorylation of Th in MN9D cells; assay: Th Ser40 phosphorylation in MN9D cells (western blot, P-Ser40/total Th)
Procedure: FIG. 6. PDE2a is an important effector regulating Ser40 phosphorylation in MN9D cells. MN9D cultures were treated with IBMX or BAY-60-7550 (50 μM), a PDE2A-selective inhibitor. Cells were analyzed on western-blot for phosphorylation of Ser40 , total Th, and actin.
as §1
FIG. 10. PDE11 is an important effector regulating Ser40 phosphorylation in MN9D cells. BC 11-38 dose-curve and representative examples in MN9D (n=2) (Mean±SEM). IBMX served as a control and was used at 100 μM. Cell were analyzed for phosphorylation of Th on Ser40 and total Th was used as a loading control to determine phosphorylation specific effects.
24 hours prior to the administration of the different compounds, cells were serum-starved with DMEM medium supplemented with L-glutamine and Pen&Strep. Unless otherwise stated, the concentration of the different reagents is reported in Table 1 and the duration of the treatment was 1 hour.
Cells were harvested in 150 μL of Laemmli sample buffer (2% SDS, 10% glycerol, 60 mM Tris-Cl pH 6.8, 0.01% bromophenol blue, 50 mM freshly added DTT). Wells were duplicated in pairs and pooled into the same tubes to minimize variability. Samples were sonicated at maximum potency during 3 minutes, heated at 95° C. for 5 minutes and spun down briefly before loading. Running gels were 10% polyacrylamide except for the GUCY2C detection, which was optimal in 7% gels (375 mM Tris-Cl pH 8.8, 0.1% APS, 0.1% SDS, 0.04% TEMED). Stacking gels were 5% polyacrylamide (125 mM Tris-Cl pH 6.8, 0.1% APS, 0.1% SDS, 0.04% TEMED).
Up to 35 μL of sample was loaded in each slot and run in the presence of tris-glycine buffer and 0.1% SDS. Running conditions were 100 V during the first 20 minutes, followed by 160 V until the migration front reached the bottom of the gel. The transference was performed at 100 V onto 0.2 μm nitrocellulose membranes, in the presence of tris-glycine buffer and 20% methanol. The blotting duration was 140 minutes except for the detection of GUCY2C, which was transferred during 240 minutes in the presence of 0.1% SDS. Membranes were then submerged in Ponceau S solution to check blotting efficiency (0.1% Ponceau S, 5% acetic acid). After several washings with DEMI water, blots were incubated during 1 hour in the presence of 5% milk powder and TBS-T (154 mM NaCl, 49.5 mM Tris-Cl pH 7.4, 0.1% Tween-20). The incubation with the primary antibodies was performed O/N at 4° C. in TBS-T (consult Table 2 for dilution and species). Membranes were rinsed in TBS-T during 1 hour to remove the excess antibody. The incubation with the secondary antibodies took place during 60 minutes at room temperature (1:10,000 dilution in TBS-T, with the exception of the goat secondary which was diluted 1:20,000). Secondary antibodies were fused to the horseradish peroxidase and raised against the host species of the primary antibody. After additional washings during 1 hour, blots were exposed to an enhanced chemiluminescence solution and the signal was detected using an Odyssey imager (LI-COR). Band densitometry was performed with LI-COR Image Studio Lite. For graph quantifications, ‘Fold Change’ represents the ratio P-Ser40/Total Th. Statistical comparisons between pair of groups correspond to unpaired Student's t-tests, as calculated with GraphPad Prism. Asterisks denote the following p-values: *<0.05, **<0.01, ***<0.001, ****<0.0001.
IBMX is a non-selective PDE inhibitor, therefore we investigated the effect of inhibiting a specific PDE selectively on Ser40 phosphorylation. To study the effect of PDE2A inhibition on Ser40 phosphorylation we treated the dopaminergic cell-line MN9D with Bay BAY-60-7550 and analyzed the effects. […]

GUCY2C, sequence (P25092 24-1073): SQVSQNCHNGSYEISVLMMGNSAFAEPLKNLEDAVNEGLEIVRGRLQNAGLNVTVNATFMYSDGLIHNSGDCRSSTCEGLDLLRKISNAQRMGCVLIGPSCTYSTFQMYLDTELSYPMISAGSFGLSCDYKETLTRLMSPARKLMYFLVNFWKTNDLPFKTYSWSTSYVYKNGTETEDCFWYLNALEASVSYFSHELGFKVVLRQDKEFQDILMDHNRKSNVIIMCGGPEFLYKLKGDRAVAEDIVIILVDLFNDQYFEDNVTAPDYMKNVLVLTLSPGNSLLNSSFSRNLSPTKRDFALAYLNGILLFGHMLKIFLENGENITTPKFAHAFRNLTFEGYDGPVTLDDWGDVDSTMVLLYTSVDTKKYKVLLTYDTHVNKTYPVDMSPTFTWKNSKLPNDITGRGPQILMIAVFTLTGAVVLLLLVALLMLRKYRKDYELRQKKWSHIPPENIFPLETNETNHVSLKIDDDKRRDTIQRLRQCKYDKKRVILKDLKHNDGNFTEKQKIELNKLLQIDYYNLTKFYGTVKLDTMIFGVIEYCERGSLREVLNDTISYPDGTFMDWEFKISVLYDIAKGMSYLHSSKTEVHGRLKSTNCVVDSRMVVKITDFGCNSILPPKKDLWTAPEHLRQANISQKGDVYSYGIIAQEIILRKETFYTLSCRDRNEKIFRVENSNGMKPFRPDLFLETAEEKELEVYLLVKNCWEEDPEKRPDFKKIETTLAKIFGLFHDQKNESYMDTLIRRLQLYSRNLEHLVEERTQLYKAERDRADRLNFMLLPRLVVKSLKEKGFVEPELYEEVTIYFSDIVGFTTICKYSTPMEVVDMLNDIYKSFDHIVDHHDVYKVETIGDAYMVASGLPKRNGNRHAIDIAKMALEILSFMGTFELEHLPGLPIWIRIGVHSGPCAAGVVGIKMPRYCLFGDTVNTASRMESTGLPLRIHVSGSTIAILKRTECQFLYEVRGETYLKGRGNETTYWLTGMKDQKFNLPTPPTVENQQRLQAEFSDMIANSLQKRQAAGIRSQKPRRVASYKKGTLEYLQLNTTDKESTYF

Compound	Fold change (average), P-S40 TH/TTH ([1]; 10 μM, striatal slices)	Ser40 phosphorylation in HEK-293 cells (significance, in words) (GUCY2C)	other results
H-QEECELCINMACTGCL-OH (disulfide 4-12, 7-15; ends not checked) [Peptide 8]	0.89	significant effects	–
H-NTFYCCELCCAPACTGCY-OH [Peptide 10]	1.44	significant effects	–
H-NDDCELCVNVVCTGCL-OH (disulfide 4-12, 7-15; ends not checked) [Peptide 5]	1.22	–	–
H-QEECEL[Abu]INMACTGY-OH (cysteine pairing not given here) [Peptide 6]	0.88	significant effects	–
H-NTFYCCELCCNPACAGCY-OH (disulfide 5-10, 6-14, 9-17; ends not checked) [Peptide 9]	1.37	significant effects	–
H-NTFYCCELCCNPaCAGCY-OH [Peptide 11]	1.20	significant effects	–
H-NDCCELCCNVACTGCL-OH [Peptide 4]	1.00	significant effects	–
H-NDDCELCVNVACTGCLL-OH (disulfide 4-12, 7-15; ends not checked) [Peptide 2]	2.23	significant effects	rank of fold change in striatal slices ([1]; 10 μM, striatal slices): largest fold change; effects in striatal slices (significance, in words) [1]: not significant
Nc1nc2c(nc(Br)n2[C@@H]2O[C@@H]3COP(=O)(O)O[C@H]3[C@H]2O)c(=O)[nH]1 [Peptide 8-Bromo-cGMP, 8-Bromo-cGMP]	–	–	P-Ser40 levels upon compound administration [2]: small but significant increase
H-NDDCELCVNVACTGCL-OH (disulfide 4-12, 7-15; SMILES CC(C)C[C@H](NC(=O)[C@@H]1CSSC[C@@H]2NC(=O)[C@H](CC(C)C)NC(=O)[C@H](CCC(=O)O)NC(=O)[C@@H](NC(=O)[C@H](CC(=O)O)NC(=O)[C@H](CC(=O)O)NC(=O)[C@@H](N)CC(N)=O)CSSC[C@H](NC(=O)[C@H](C)NC(=O)[C@H](C(C)C)NC(=O)[C@H](CC(N)=O)NC(=O)[C@H](C(C)C)NC2=O)C(=O)N[C@@H]([C@@H](C)O)C(=O)NCC(=O)N1)C(=O)O) [Peptide 1]	–	did not show any significant effects	effects in striatal slices (significance, in words) [1]: did not show any significant effects
CCCSc1nc2c(c(=O)n1-c1ccccc1)SCC2 [BC 11-38]	–	–	performance versus IBMX on Ser40 phosphorylation ([3]; IBMX 100 μM as control): performed less well than the positive control IBMX; phosphorylation of Th on Ser40 as compared to total Th (in words) ([3]; dose-curve): increase in the phosphorylation of Th on Ser40
